Measured values reported in patent US20060258697A1, “Method of augmenting the antitumor activity of anticancer agents” (priority 2003, published 2006).
Like-named read-outs stand apart in the source and are kept apart here.

What was measured:
[1] = test system: normal nude mice; assay: Toxicity of selenium compounds alone in normal nude mice; assay type: in vivo; settings: 0.2 mg/mouse/day for 28 days orally
Procedure: However, it was observed that when cure rates were evaluated, selenium increased the efficacy of only irinotecan and taxotere. While not intending to be bound by any particular theory, it is considered that potentiation of the efficacy of anticancer drugs is associated with increased antitumor activity and decreased toxicity.

[2] = test system: rat; assay: Reduction of doxorubicin toxicity by selenium compounds in rats; assay type: in vivo; settings: 0.5 mg/day/rat daily for 14 days, started 7 days prior to doxorubicin; data not shown
[3] = test system: nude mice; assay: Irinotecan lethality / survival with and without selenium compound; assay type: in vivo; settings: for Survivor (%): without or with MSC 0.2 mg/mouse/d × 28 p.o.
Procedure: This example describes the evaluation of the effect of selenium containing compounds on the antitumor activity of irinotecan. […] Irinotecan was administered at 100 mg/kg/wk for 4 weeks (MTD) and 200 mg/kg/wk for 4 weeks (toxic) alone and in combination with 0.2 mg/mouse/d of MSC for 28 days to nude mice bearing HCT-8 colon xenografts. […] Thus, MSC potentiates the efficacy of irinotecan by increasing cure rate and by decreasing toxicity.
Nude mice (5 mice/group; experiment repeated ≧3 times) were treated with 0.2 mg/mouse/day of SLM (data replicated with MSC) for 21, 7, 3, 1, or 0 days prior to initiation of weekly IV irinotecan at 2 ×the MTD (at 200mg/kg/week×4). […] 3 days pre-treatment was associated with 80% survivorship while 0-1 days were associated with 60% (45% survivorship for irinotecan alone) (FIG. 13). Thus, the optimal duration of pre-treatment with SLM 0.2mg/mouse/day for maximum protection against irinotecan lethality was identified to be at least 1 week.

[4] = test system: FaDu squamous cell carcinoma of the head and neck xenografts; assay: Cure rate / antitumor activity in nude mice bearing FaDu head and neck xenografts; assay type: in vivo; settings: for % CR of Surviving Animals FaDu: without or with MSC 0.2 mg/mouse/d
Procedure: (§1) 5-Methylselenocysteine (MSC). Two schedules were evaluated: 1) in combination with irinotecan, MSC (0.2 mg/mouse/d×28) was administered orally for 28 days with the first dose administered daily for seven days prior to the weekly drug administration and 2) in combination with other drugs, MSC was administered orally (0.2 mg/mouse/d×14) daily for 14 days with the first dose administered daily for seven days prior to the single i.v. administration of taxol, CDDP, Dox, taxotere and cyclophosphamide.
(§2) Anticancer drug administration. The anticancer drugs administration schedule was as follows. • i. Irinotecan (CPT-11), weekly i.v. push for four (4) weeks, • ii. Taxol, single i.v. push, • iii. Cisplatin (CDDP), single i.v. push. • iv. Doxorubin (Dox), single i.v. push. • v. Cyclophosphamide, single i.v. push. • vi. Oxaliplatin, single i.v. push • vii. Taxotere, single i.v. push
Tumor Xenografts. […] The following tumor xenografts were established. • i. HCT-8: poorly-differentiated colon carcinoma, expressing wild type p53 • ii. HT-29: well-differentiated colon carcinoma expressing mutant p53 • iii. A253: well-differentiated squamous cell carcinoma of the head and neck (SCCHN) expressing no p53 • iv. FaDu: poorly-differentiated squamous cell carcinoma of the head and neck (SCCHN) expressing mutant p53 […]
(§3) This example describes the modulation of the antitumor activity of anticancer drugs by MSC in mice bearing human tumors. […] To determine whether modulation of the therapeutic efficacy and cure of irinotecan by MSC is drug specific, the antitumor activity of drugs, representing different classes and mechanisms of action were evaluated alone and in combination with non-toxic doses and schedules of MSC (0.2 mg/mouse/d×14) in xenografts bearing human A253 and FaDu (SCCHN) tumors (FIG. 5). The data in FIG. 5 represent the use of the MTD doses of cisplatin (8 mg/kg×1), cyclophosphamide (100 mg/kg×1), taxol (35 mg/kg ×1.) and doxorubicin (10 mg/kg×1).
In mice, MSC was orally administered at 0.2 mg/mouse/d with the first daily dose administered seven days prior to single i.v. administration of drug and continuous for additional seven days for a total MSC treatment of 14 days.

[5] = test system: Mice
[6] = test system: A253 squamous cell carcinoma of the head and neck xenografts; assay: Cure rate / antitumor activity in nude mice bearing A253 head and neck xenografts; assay type: in vivo
Procedure: as §1, §2
(§4) Tumor Xenografts. […] The following tumor xenografts were established. • i. HCT-8: poorly-differentiated colon carcinoma, expressing wild type p53 • ii. HT-29: well-differentiated colon carcinoma expressing mutant p53 • iii. A253: well-differentiated squamous cell carcinoma of the head and neck (SCCHN) expressing no p53 • iv. FaDu: poorly-differentiated squamous cell carcinoma of the head and neck (SCCHN) expressing mutant p53
This example describes the comparative antitumor activity of MSC and SLM in combination with the maximum tolerated dose of irinotecan. […] As an illustration, MSC and SLM were used in combination with irinotecan. The results, shown in FIG. 3, represent a comparative evaluation of the effect of MSC and SLM (0.2 mg/mouse/d×28) on the antitumor activity of irinotecan (100 mg/kg/wk×4).
To determine whether therapeutic synergy achieved with irinotecan in xenografts is specific for MSC, the antitumor activity of irinotecan with and without two selenium-containing compounds, MSC and SLM were compared in xenografts bearing A253 (SCCHN) tumors for the […] (200 mg/kg/wk×4). The data compare the antitumor activity of MSC with SLM in combination with irinotecan (200 mg/kg/wk×4).
as §3

[7] = in vivo; settings: rat
[8] = in vivo; settings: nude, mouse
[9] = test system: HCT-8 colon xenografts; assay: Cure rate / antitumor activity in nude mice bearing HCT-8 colon xenografts; assay type: in vivo; settings: for HCT-8 CR (%) / HCT-8 PR (%): drug 100 mg/kg/week i.v. × 4, MSC 0.2 mg/day/mouse p.o. 42 days started 21 days before drug; for % CR of Surviving Animals HCT-8: without or with MSC 0.2 mg/mouse/d
Procedure: as §1, §2, §4
This example describes the evaluation of the effect of selenium containing compounds on the antitumor activity of irinotecan. […] Irinotecan was administered at 100 mg/kg/wk for 4 weeks (MTD) and 200 mg/kg/wk for 4 weeks (toxic) alone and in combination with 0.2 mg/mouse/d of MSC for 28 days to nude mice bearing HCT-8 colon xenografts.
For these experiments, FUra was administered by i.v. push weekly times 4 and MSC by p.o. once a day for 6 weeks, the first dose being given 3 weeks before FUra administration. Irinotecan was administered by i.v. 100 mg/kg/week once a week for 4 weeks and MSC (0.2 mg/day), by p.o. daily for 28 days with the first dose started 7 days prior to irinotecan treatment.

[10] = test system: HT-29 colon xenografts; assay: Cure rate / antitumor activity in nude mice bearing HT-29 colon xenografts; assay type: in vivo; settings: for HT-29 CR (%) / HT-29 PR (%): drug 100 mg/kg/week i.v. × 4, MSC 0.2 mg/day/mouse p.o. 42 days started 21 days before drug; for % CR of Surviving Animals HT-29: without or with MSC 0.2 mg/mouse/d
[11] = test system: Rats; settings: oxaliplatin 10 mg/kg single i.v.; alone or with MSC […]
Procedure: In this example, the effect of selenium on the antitumor activity of oxaliplatin and doxorubicin was tested as follows. The effect of selenium was determined on the antitumor activity of oxaliplatin in rats bearing advanced ward colorectal carcinoma (3000 mg). Rats received MSC (0.75 mg/rat/d) or saline fourteen days prior to single i.v. injection of oxaliplatin of 5 and 10 mg/kg with continuous daily oral administration of MSC for additional seven days for a total of 21 days of MSC and oxaliplatin is administered on day 14 after saline and MSC treatment.

[12] = test system: nude mice; settings: taxotere 100 mg/kg single i.v.
Procedure: Taxotere was administered to nude mice at non-toxic (60 mg/kg) or toxic (100 mg/kg) dose by a single i.v. injection and MSC was administered by oral route daily for 14 days with the first dose of MSC started before taxotere treatment.

[13] = Table 3 first column pair (head printed 'FaUra'), drug dose mg/kg and MSC mg/mouse/day in parentheses of Treatment
[14] = Table 3 first column pair (head printed 'FaUra'), drug dose mg/kg and MSC mg/mouse/day in parentheses of Treatment, schedules per footnote
[15] = Table 3 (A253), drug dose mg/kg and MSC mg/mouse/day in parentheses of Treatment

## C[Se]C[C@H](N)C(=O)O [MSC, 5-methylselenocysteine]
[1]
  toxicity of selenium compound alone: not to be toxic
[2]
  reducing toxicity of doxorubicin: effective in reducing toxicity
[3]; nude mice, p.o. daily
  lowest effective dose in attenuating irinotecan toxicity: 0.01 mg/day

## COc1cccc2c1C(=O)c1c(O)c3c(c(O)c1C2=O)C[C@@](O)(C(=O)CO)C[C@@H]3O[C@H]1C[C@H](N)[C@H](O)[C@H](C)O1 [Doxorubicin, doxorubicin]
[4]; [13]
  PR (%) (partial tumor regression, >50% tumor reduction): 0%
[4]; [14]
  CR (%) (complete tumor regression): 0%
[5]; nude, mouse, in vivo
  MTD (mg/kg) Mice: 10 mg/kg
[6]; [15]
  CR (%) (complete tumor regression): 0%
  PR (%) (partial tumor regression, >50% tumor reduction): 60%
[7]
  MTD: 6 mg/kg

## CC(=O)O[C@H]1C(=O)[C@@]2(C)[C@H]([C@H](OC(=O)c3ccccc3)[C@]3(O)C[C@H](OC(=O)[C@H](O)[C@@H](NC(=O)c4ccccc4)c4ccccc4)C(C)=C1C3(C)C)[C@]1(OC(C)=O)CO[C@@H]1C[C@@H]2O [Taxol]
[8]
  MTD: 35 mg/kg
[4]; [13]
  PR (%) (partial tumor regression, >50% tumor reduction): 0%
[4]; [14]
  CR (%) (complete tumor regression): 0%
[6]; [15]
  CR (%) (complete tumor regression): 0%
  PR (%) (partial tumor regression, >50% tumor reduction): 0%
[7]
  MTD: 50 mg/kg

## CCc1c2c(nc3ccc(OC(=O)N4CCC(N5CCCCC5)CC4)cc13)-c1cc3c(c(=O)n1C2)COC(=O)[C@]3(O)CC [Irinotecan, irinotecan]
[9]
  HCT-8 CR (%): 20%
  HCT-8 PR (%): 20%
[9]; irinotecan 100 mg/kg/wk × 4
  % CR of Surviving Animals HCT-8: 20%
[9]; irinotecan 200 mg/kg/wk × 4
  % CR of Surviving Animals HCT-8: 30%
[4]; [13]
  PR (%) (partial tumor regression, >50% tumor reduction): 50%
[4]; [14]
  CR (%) (complete tumor regression): 30%
[4]; irinotecan 100 mg/kg/wk × 4
  % CR of Surviving Animals FaDu: 30%
[4]; irinotecan 200 mg/kg/wk × 4
  % CR of Surviving Animals FaDu: 50%
[5]; weekly i.v. for 4 weeks, nude mice
  maximum tolerated weekly dose: 100 mg/kg/wk
[6]; [15]
  CR (%) (complete tumor regression): 10%
  PR (%) (partial tumor regression, >50% tumor reduction): 30%
[6]; irinotecan 100 mg/kg/wk × 4, without or with MSC 0.2 mg/mouse/d
  % CR of Surviving Animals A253: 20%
[6]; irinotecan 200 mg/kg/wk × 4, without or with MSC or SLM 0.2 mg/mouse/d
  % CR of Surviving Animals A253: 40%
[3]; irinotecan 100 mg/kg/wk × 4 i.v.
  Survivor (%): 100%
[3]; irinotecan 200 mg/kg/week × 4 alone (Example 8)
  survivorship: 45%
[3]; irinotecan 200 mg/kg/wk × 4 i.v.
  Survivor (%): 50%
[3]; irinotecan 300 mg/kg/wk × 4, alone or with MSC
  lethality: 100%
[3]; irinotecan 300 mg/kg/wk × 4 i.v.
  Survivor (%): 0%
[10]
  HT-29 CR (%): 0%
  HT-29 PR (%): 0%
[10]; irinotecan 100 mg/kg/wk × 4
  % CR of Surviving Animals HT-29: 0%
[10]; irinotecan 200 mg/kg/wk × 4
  % CR of Surviving Animals HT-29: 10%

## CCCCCOC(=O)Nc1nc(=O)n([C@@H]2O[C@H](C)[C@@H](O)[C@H]2O)cc1F [Xeloda]
[4]; [14]
  CR (%) (complete tumor regression): 0%
[6]; [15]
  CR (%) (complete tumor regression): 0%
  PR (%) (partial tumor regression, >50% tumor reduction): 0%

## O=C1[O][Pt]2([NH][C@@H]3CCCC[C@H]3[NH]2)[O]C1=O [Oxaliplatin, oxaliplatin]
[4]; mouse, in vivo
  CR (%) (complete tumor regression): 0%
  PR (%) (partial tumor regression, >50% tumor reduction): 0%
[11]
  toxicity (weight loss and diarrhea): toxic
[5]; drug alone (−) or with MSC (+)
  MTD (mg/kg) Mice: 7.5 mg/kg
[6]; mouse, in vivo
  CR (%) (complete tumor regression): 0%
  PR (%) (partial tumor regression, >50% tumor reduction): 0%

## N.N.[Cl][Pt][Cl] [Cisplatin, cisplatin]
[4]; [13]
  PR (%) (partial tumor regression, >50% tumor reduction): 0%
[4]; [14]
  CR (%) (complete tumor regression): 0%
[5]; drug alone (−) or with MSC (+)
  MTD (mg/kg) Mice: 8 mg/kg
[6]; [15]
  CR (%) (complete tumor regression): 0%
  PR (%) (partial tumor regression, >50% tumor reduction): 0%

## O=P1(N(CCCl)CCCl)NCCCO1 (stereo not shown) [Cyclophosphamide, cyclophosphamide]
[8]
  MTD: 100 mg/kg
[4]; mouse, in vivo
  CR (%) (complete tumor regression): 0%
  PR (%) (partial tumor regression, >50% tumor reduction): 0%
[6]; mouse, in vivo
  CR (%) (complete tumor regression): 0%
  PR (%) (partial tumor regression, >50% tumor reduction): 0%

## CC[C@@]1(O)C(=O)OCc2c1cc1n(c2=O)Cc2cc3c(CN(C)C)c(O)ccc3nc2-1 [Topotecan, topotecan]
[4]; [13]
  PR (%) (partial tumor regression, >50% tumor reduction): 0%
[4]; [14]
  CR (%) (complete tumor regression): 0%
[6]; [15]
  CR (%) (complete tumor regression): 0%
  PR (%) (partial tumor regression, >50% tumor reduction): 0%

## O=c1[nH]cc(F)c(=O)[nH]1 [FUra]
[9]
  HCT-8 CR (%): 0%
  HCT-8 PR (%): 0%
[4]; [14]
  CR (%) (complete tumor regression): 0%
[6]; [15]
  CR (%) (complete tumor regression): 0%
  PR (%) (partial tumor regression, >50% tumor reduction): 0%
[10]
  HT-29 CR (%): 0%
  HT-29 PR (%): 0%

## CC(=O)O[C@@]12CO[C@@H]1C[C@H](O)[C@@]1(C)C(=O)[C@H](O)C3=C(C)[C@@H](OC(=O)[C@H](O)[C@@H](NC(=O)OC(C)(C)C)c4ccccc4)C[C@@](O)([C@@H](OC(=O)c4ccccc4)[C@H]21)C3(C)C [Taxotere]
[8]
  MTD: 60 mg/kg
[4]; FaDu, taxotere 60 mg/kg single i.v., alone or with MSC 0.2 mg/mouse/d × 14
  animals cured of their tumors: insensitive
[4]; [13]
  PR (%) (partial tumor regression, >50% tumor reduction): 40%
[4]; [14]
  CR (%) (complete tumor regression): 0%
[12]
  lethality: 40%
[6]
  CR (%) (complete tumor regression): 0%
  PR (%) (partial tumor regression, >50% tumor reduction): 20%
[6]; A253, taxotere 60 mg/kg single i.v., alone or with MSC 0.2 mg/mouse/d × 14
  animals cured of their tumors: insensitive

## O=[Se](O)O [sodium selenite]
[2]
  reducing toxicity of doxorubicin: not sodium selenite
